Read-outs that look alike come from different tables or passages of the source.
Legend:
[1] = test system: HIV-1 (IIIB Stock); assay: HIV-1 infectivity inhibition assay (Molt4 cells); assay type: cell-based; settings: for IC50: read-out: IC50 (50% Inhibitory concentration for cytopathicity by HIV); for Selective Index (Cytotoxycity/IC50 ratio): cytotoxicity/IC50 ratio, 10080 min
Description: 6. HIV-1 Infectivity Inhibition Assay
In addition, the compounds of the present invention were assayed via a virus neutralization, or HIV infectivity assay as follows:
Bulk Infection of Molt4 Cells.
Bulk infection is used to overcome variations inherent in individual well infections. Sufficient cells and diluted virus stock for an experiment are mixed together in a T-75 flask (Corning) so that the following ratio per well of virus and cells is maintained: 100 μl containing 45 TCID50 of virus (IIIB Stock) mixed with 100 μl of Molt4 cells (3×10^4 cells/well or 3×10^5 /ml). Virus is allowed to adsorb for 90 min. at 37° C. in CO2 incubator. […] of cell/virus mixture is then aliquoted into individual wells of a 24-well plate.
Appropriate 1/200 volumes of inhibitor dilutions at 200X final concentrations in 100% DMSO are added [i.e., to the 497.5 μl of virus infected cells, 2.5 μl of inhibitor dilution of 100% DMSO or 100% DMSO alone (for virus controls) is carefully added to appropriate wells]. Dilution series are generally 5-fold dilutions starting from 50 μg/ml.
Cultures are fed with RPMI 1640+20% FBS containing 1× concentration of inhibitor series (i.e., starting concentrations present at beginning of experiment) at the following times and volumes:
(Final volume in each well=1.5 ml)
Culture supernatants are harvested at 7 days post infection. Generally 90 μl of culture medium is transferred into a 96-well culture plate containing 10 μl 5% Triton X-100 in PBS. The plate is sealed, wiped with gauze saturated with 70% ethanol+detergent and stored at -80° C. until Micro RTs or p24 ELISAs are done. The results of HIV infectivity,inhibition is presented below:
^2 50% Inhibitory concentration for cytopathicity by HIV

[2] = molecular target: T1, HIV reverse transcriptase (Human immunodeficiency virus type 1 group M subtype B, UniProt P03366); assay: HIV reverse transcriptase inhibition (TCA precipitation assay / scintillation proximity assay); assay type: biochemical
T1 construct: Recombinant HIV reverse transcriptase; made in house
Description: 5. Reverse Transcriptase Activity
RT inhibition was determined by a TCA precipitation assay as follows:
TCA-precipitation assay for HIV reverse transcriptase.
A heteropolymeric primer template was prepared by hybridizing a 691 nucleotide RNA molecule derived from the gag region of HIV [(+)-GAG^691, prepared as described in Mizrahi, V., Biochemistry, 28:9088-9094 (1989)], to a synthetic oligodeoxynucleotide (sequence: 5'-[…]-3'). The primer template (10 nM) was incubated in reaction buffer (50 mM Tris-HCl, pH 7.8, 80 mM KCl, 6 mM MgCl2, 10 mM DTT, 0.01 mg/ml BSA) with inhibitor, 10 μM dGTP, 10 μM dATP, and 28 μCi/ml of [3H]TYP (Amersham). Recombinant HIV reverse transcriptase (prepared as described in Mizrahi, et al., Arch. Biochem. Biophys., 273: 347-358, (1989)) was added to a concentration of 2-8 nM, and the reaction was incubated for 15 min at 37° C. (total reaction volume, 50 μL). The reaction was terminated with 50 μL of 20% TCA in 100 mM sodium pyrophosphate (ice cold) and chilled on ice for 15-30 min. The reaction mixture was filtered through glass fiber filters using a cell harvester, and the radioactivity that adhered to the filter was quantified using an LKB betaplate counter.
Scintillation proximity assay for HIV reverse tanscriptase.
HIV reverse transcriptase SPA enzyme assay system kits were obtained from Amersham (item number NK8972) and used as described in the package insert. Briefly, 10 μL of primer-template as supplied in the kit was added to 70 μL of dNTP/[3H]TTP solution. Ten μL of the inhibitor to be tested was added, followed by recombinant HIV RT (prepared as above) to a concentration of 2 nM. The reaction mixture was incubated for 10 min at room temperature and then terminated with 40 μL of 0.5M EDTA. Ten μL of streptavidin-SPA beads were added to each tube and the incorporated radioactivity was measured in an LKB betaplate counter.

[3] = test system: human immunodeficiency virus-1 reverse transcriptase (HIV-1 RT); settings: literature, Kashman et al. 1992; cited from earlier work
[4] = molecular target: T2, HIV RT in which amino acid #181 was changed from tyrosine to cysteine (Human immunodeficiency virus type 1 BH10, UniProt P03366, Y780C); assay: Inhibition of TIBO-resistant mutant HIV RT, amino acid #181 tyrosine to cysteine; assay type: biochemical; settings: Tyr181 to cysteine mutant
T2 construct: wild type recombinant per Mizrahi 1989

[5] = molecular target: T3, HIV RT in which amino acid #181 was changed from tyrosine to isoleucine (Human immunodeficiency virus type 1 BH10, UniProt P03366, Y780I); assay: Inhibition of TIBO-resistant mutant HIV RT, amino acid #181 tyrosine to isoleucine; assay type: biochemical; settings: Tyr181 to isoleucine mutant
T3 construct: wild type recombinant per Mizrahi 1989

[6] = Cellular cytotoxicity in Molt4 cells; assay type: cell-based; settings: human, Measured via XTT
Description: Cytotoxicity was tested with the CD4+cell line, Molt4. The compounds of the present invention were dissolved in DMSO in order to maximize solubility and provide a common solvent system. […] Cytotoxicity was measured as the inhibition of ^3 H-thymidine incorporation into the host cell's genome after exposure to the compounds of the present invention.

[7] = recombinant HIV RT, RT inhibition results table of Example 5, read-out: IC50
[8] = Compounds 22 and 23, Example 7, read-out: Reverse Transcriptase Activity: IC50
[9] = Human immunodeficiency virus 1, IIIB, MOLT-4, 168 h

Compound	IC50 [2, 7] [µM]	CC50 [6] [µM]	other results
tetrahydro-imidazo[4,5,1-jk][1,4]-benzodiazepin-2-(1H)-one and -thione [TIBO, reference compound]			IC50 ([1]; Molt4 cells, harvest 7 days post infection): 0.19 µM; Selective Index (Cytotoxycity/IC50 ratio) [1]: 100
C[C@@H]1[C@H](O)c2c(c3c(c4c(-c5ccccc5)cc(=O)oc24)O[C@H]2[C@@H]3C2(C)C)O[C@@H]1C [Inophyllum G2]	> 50		
CCCc1cc(=O)oc2c3c(c4c(c12)OC(C)(C)C=C4)O[C@H](C)[C@@H](C)[C@@H]3O [Calanolide A]			inhibition of HIV-1 RT (in words) [3]: potent inhibitor
C[C@@H]1[C@H](O)c2c(c3c(c4c(-c5ccccc5)cc(=O)oc24)O[C@@H]2[C@H]3C2(C)C)O[C@@H]1C [Inophyllum G1]	> 50		
CCCc1cc(=O)oc2c3c(c4c(c12)OC(C)(C)C=C4)O[C@H](C)[C@@H](C)[C@@H]3O (relative stereo) [(±)-20, (±)-Calanolide A]			HIV-1 RT-inhibitory potency compared with natural calanolide A (in words) ([2]; synthetic racemate vs data reported for natural calanolide A): in full agreement with the data reported for natural calanolide A
CCCc1cc(=O)oc2c3c(c4c(c12)OC(C)(C)C=C4)O[C@@H](C)C[C@H]3O (relative stereo) [Compound 23]			IC50 [2, 8]: 0.6 µM
C[C@@H]1[C@@H](C)Oc2c3c(c4c(-c5ccccc5)cc(=O)oc4c2[C@@H]1O)OC(C)(C)C=C3 [Inophyllum P]	0.6	25	IC50 [1, 9]: 1.6 µM; Selective Index (Cytotoxycity/IC50 ratio) [1]: 16; inhibition of mutant HIV RT relative to wild-type (in words) [4]: potency comparable to that observed with wild-type HIV RT; activity in the RT-ase assay (in words) [2]: sub-micromolar activity; inhibition of mutant HIV RT relative to wild-type (in words) [5]: potency comparable to that observed with wild-type HIV RT
C[C@@H]1[C@H](O)c2c(c3c(c4c(-c5ccccc5)cc(=O)oc24)OC(C)(C)C=C3)O[C@@H]1C [Inophyllum A]	9	33	
C[C@H]1[C@@H](C)Oc2c3c(c4c(-c5ccccc5)cc(=O)oc4c2[C@@H]1O)OC(C)(C)C=C3 [Inophyllum D]	30	15	
C[C@H]1Oc2c3c(c4c(-c5ccccc5)cc(=O)oc4c2C(=O)[C@@H]1C)OC(C)(C)C=C3 [Inophyllum C]	> 50	18	
C[C@@H]1C(=O)c2c(c3c(c4c(-c5ccccc5)cc(=O)oc24)OC(C)(C)C=C3)O[C@@H]1C [Inophyllum E]	> 50	6.2	
CCCc1cc(=O)oc2c3c(c4c(c12)OC(C)(C)C=C4)O[C@@H](C)C[C@@H]3O (relative stereo) [Compound 22]			IC50 [2, 8]: 1.78 µM
C/C=C(\C)C(=O)c1c(OC)c2c(c3c(-c4ccccc4)cc(=O)oc13)OC(C)(C)C=C2 [Calophyllolide]	> 50	4.5	
C[C@H]1[C@H](O)c2c(c3c(c4c(-c5ccccc5)cc(=O)oc24)OC(C)(C)C=C3)O[C@@H]1C [Inophyllum B]	0.3	55	IC50 [1, 9]: 1.4 µM; Selective Index (Cytotoxycity/IC50 ratio) [1]: 39; inhibition of mutant HIV RT relative to wild-type (in words) [4]: potency comparable to that observed with wild-type HIV RT; activity in the RT-ase assay (in words) [2]: sub-micromolar activity; inhibition of mutant HIV RT relative to wild-type (in words) [5]: potency comparable to that observed with wild-type HIV RT

Reference: US5723631A, “Coumarin derivatives as retroviral inhibitors” (SmithKline Beecham Corporation, priority 1995, dated 1998)
